Laboratory results from patent publication US7179819B2, “VLA-4 inhibitor compounds” (Daiichi Pharmaceutical Co., Ltd., priority 1999, dated 2007).
Counter-ions that a name gives are not always drawn.

Compound	melting point
COc1cc(CC(=O)N2C[C@@H](N(C)C)C[C@H]2COc2ccc(C(=O)O)cc2)ccc1NC(=O)Nc1ccccc1C	147 to 150 °C
COc1cc(CC(=O)N2C[C@H](N(C)C)C[C@H]2COc2ccc(C(=O)O)cc2)ccc1NC(=O)Nc1ccccc1Cl	159 to 161 °C
COc1cc(CC(=O)N(C)CCOc2ccc(C(=O)O)cc2C(=O)O)ccc1NC(=O)Nc1ccccc1C (as salt: salt) [Compound 254, 4-[[2-[3-methoxy-4-[N′-(2-methylphenyl)ureido]phenylacetyl]methylamino]ethoxy]isophthalic acid]	139 to 141 °C
COc1cc(CC(=O)N2CCC[C@H]2CS(=O)(=O)c2cccc(C(=O)O)c2)ccc1NC(=O)Nc1ccccc1C (stereo in doubt) (as salt: salt) [Compound 21, 3-[[1-[3-methoxy-4-[N′-(2-methylphenyl)ureido]phenylacetyl]-2-pyrrolidinyl]methylsulfonyl]benzoic acid]	243 to 245 °C
COc1cc(CC(=O)N2CCC[C@H]2COc2ncc(C(=O)O)cc2Cl)ccc1NC(=O)Nc1ccccc1C (stereo in doubt) [Compound 47, 3-chloro-2-[[1-[3-methoxy-4-[N′-(2-methylphenyl)ureido]phenylacetyl]-2-pyrrolidinyl]methoxy]pyridine-5-carboxylic acid]	122 to 125 °C
COc1cc(CC(=O)N2CC(F)(F)C[C@H]2COc2ccc(C(=O)O)cc2)ccc1NC(=O)Nc1ccccc1C (stereo in doubt) [Compound 139, 4-[4,4-difluoro-1-[3-methoxy-4-[N′-(2-methylphenyl)ureido]phenylacetyl]-2-pyrrolidinylmethoxy]benzoic acid]	135 to 140 °C
COc1cc(CC(=O)N2CSC[C@H]2COc2ccc(C(=O)O)cc2)ccc1NC(=O)Nc1ccccc1C (stereo in doubt) [Compound 168, 4-[3-[3-methoxy-4-[N′-(2-methylphenyl)ureido]phenyl]acetyl-4-thiazolidinyl]methoxybenzoic acid]	125 to 128 °C
COc1cc(CC(=O)N2CSC[C@H]2COc2ccc(C(=O)O)cc2)ccc1NC(=O)Nc1ccccc1Cl (stereo in doubt) [Compound 169, 4-[3-[4-[N′-(2-chlorophenyl)ureido]-3-methoxyphenylacetyl]-4-thiazolidinyl]methoxybenzoic acid]	126 to 129 °C
COc1cc(CC(=O)N2CSC[C@H]2COc2ccc(C(=O)O)cc2)ccc1NC(=O)Nc1ccccc1Br (stereo in doubt) [Compound 170, 4-[3-[4-[N′-(2-bromophenyl)ureido]-3-methoxyphenylacetyl]-4-thiazolidinyl]methoxybenzoic acid]	125 to 133 °C
COc1cc(CC(=O)N2CCC[C@H]2C(=O)NC2CCC(C(=O)O)CC2)ccc1NC(=O)Nc1ccccc1Cl (stereo in doubt) [Compound 181, 4-[[1-[4-[N′-(2-chlorophenyl)ureido]-3-methoxylphenylacetyl]-2-pyrrolidinyl]carbonylamino]cyclohexanecarboxylic acid]	135 to 140 °C
Cc1ccccc1NC(=O)Nc1ccc(CC(=O)N2CCCC2/C=C/c2ccc(C(=O)O)cc2)cc1 (stereo not shown) [Compound 6, (E)-4-[2-[1-[4-[N′-(2-methylphenyl)ureido]phenylacetyl]-2-pyrrolidinyl]ethenyl]benzoic acid]	165 to 168 °C
Cc1ccccc1NC(=O)Nc1ccc(CC(=O)N2CCCC2CCc2ccc(C(=O)O)cc2)cc1 (stereo not shown) [Compound 7, 4-[2-[1-[4-[N′-(2-methylphenyl)ureido]phenylacetyl]-2-pyrrolindinyl]ethyl]benzoic acid]	180 to 190 °C
COc1cc(CC(=O)N2CCCC2C#Cc2ccc(C(=O)O)cc2)ccc1NC(=O)Nc1ccccc1 (stereo not shown) [Compound 13, 4-[2-[1-[3-methoxy4-(N′-phenylureido)phenylacetyl]-2-pyrrolidinyl]ethynyl]benzoic acid]	154 to 157 °C
COc1cc(CC(=O)N2CCCC2C#Cc2ccc(C(=O)O)cc2)ccc1NC(=O)Nc1ccccc1C (stereo not shown) [Compound 14, 4-[2-[1-[3-methoxy-4-[N′-(2-methylphenyl)ureido]phenylacetyl]-2-pyrrolidinyl]ethynyl]benzoic acid]	161 to 164 °C
COc1cc(CC(=O)N2CCC[C@H]2COc2ccc(C(=O)O)cc2OC)ccc1NC(=O)Nc1ccccc1C [Compound 27]	132 to 135 °C
COc1cc(CC(=O)N2CCCC2C#Cc2ccc(C(=O)O)cc2)ccc1NC(=O)Nc1ccccc1F (stereo not shown) [Compound 33, 4-[2-[1-[4-[N′-(2-fluorophenyl)ureido)-3-methoxyphenylacetyl]-2-pyrrolidinyl]ethynyl]benzoic acid]	152 to 155 °C (dec.)
COc1cc(C(=O)O)ccc1OCc1csc(Cc2ccc(NC(=O)Nc3ccccc3C)cc2)n1 [Compound 41, 3-methoxy-4-[2-[4-[N′-(2-methylphenyl)ureido]benzyl]4-thiazolyl]methoxybenzoic acid]	243 to 245 °C

The next lines start with the values.

melting point	Compound
165 to 167 °C	COc1cc(CC(=O)N2C[C@@H](N(C)C)C[C@H]2COc2ccc(C(=O)O)cc2)ccc1NC(=O)Nc1ccccc1Cl
160 to 170 °C	COc1cc(CC(=O)N2CCCC2CN2CCN(CC(=O)O)CC2)ccc1NC(=O)Nc1ccccc1C (stereo not shown) (as salt: salt)
123 to 126 °C	COc1cc(CC(=O)N2CCC[C@H]2COc2ccc(C(=O)O)cc2F)ccc1NC(=O)Nc1ccccc1C (stereo in doubt) [Compound 38, 3-fluoro-4-[[1-[3-methoxy-4-[N′-(2-methylphenyl)ureido]phenylacetyl]-2-pyrrolidinyl]methoxy]benzoic acid]
140 to 144 °C	COc1cc(CC(=O)N2CCC[C@H]2COc2ccc(C(=O)O)cc2OC)ccc1NC(=O)Nc1ccccc1F (stereo in doubt) [Compound 39, 4-[1-[4-[N′-(2-fluorophenyl)ureido]-3-methoxyphenylacetyl]-2-pyrrolidinyl]methoxy-3-methoxy benzoic acid]
125 to 128 °C	COc1cc(CC(=O)N2CCC[C@H]2COc2ccc(C(=O)O)cn2)ccc1NC(=O)Nc1ccccc1C (stereo in doubt) [Compound 40, 2-[[1-[3-methoxy-4-[N′-(2-methylphenyl)ureido]phenylacetyl]-2-pyrrolidinyl]methoxy]pyridine-5-carboxylic acid]
170 to 171 °C	COc1cc(CC(=O)N2CC(N)C[C@H]2COc2ccc(C(=O)O)cc2)ccc1NC(=O)Nc1ccccc1C (stereo in doubt) [Compound 151, 4-[trans-4-amino-1-[3-methoxy-4-[N′-(2-methylphenyl)ureido]phenylacetyl]-(2S)-pyrrolidinyl]methoxybenzoic acid]
136 to 142 °C	COc1cc(CC(=O)N2CCC[C@H]2C(=O)NC2CCC(C(=O)O)CC2)ccc1NC(=O)Nc1ccccc1C (stereo in doubt) [Compound 180, 4-[[1-[3-methoxy-4-[N′-(2-methylphenyl)ureido]phenylacetyl]-2-pyrrolidinyl]carbonylamino]cyclohexanecarboxylic acid]
120 to 125 °C	COc1cc(CC(=O)N2CCC[C@H]2COc2ccc(C(=O)O)cc2)ccc1NC(=O)Nc1ccccc1Br [Compound 59, 4-[1-[4-[N′-(2-bromophenyl)ureido]-3-methoxylphenylacetyl]-(2S)-pyrrolidinyl]methoxybenzoic acid]
